From ChEMBL document CHEMBL5550200, “Back-Pocket Optimization of 2-Aminopyrimidine-Based Macrocycles Leads to Potent EPHA2/GAK Kinase Inhibitors” (J Med Chem, 2024) come the findings set out here.

The target in test [1] is Ephrin type-A receptor 4 (Homo sapiens, UniProt P54764). The test is described as follows: Induction of stabilization of recombinant EPHA4 (unknown origin) assessed as change in melting temperature by differential scanning fluorimetry assay. Background: Differential scanning fluorimetry follows unfolding on heating by fluorescence.
Ephrin type-A receptor 4, sequence (P54764 whole entry): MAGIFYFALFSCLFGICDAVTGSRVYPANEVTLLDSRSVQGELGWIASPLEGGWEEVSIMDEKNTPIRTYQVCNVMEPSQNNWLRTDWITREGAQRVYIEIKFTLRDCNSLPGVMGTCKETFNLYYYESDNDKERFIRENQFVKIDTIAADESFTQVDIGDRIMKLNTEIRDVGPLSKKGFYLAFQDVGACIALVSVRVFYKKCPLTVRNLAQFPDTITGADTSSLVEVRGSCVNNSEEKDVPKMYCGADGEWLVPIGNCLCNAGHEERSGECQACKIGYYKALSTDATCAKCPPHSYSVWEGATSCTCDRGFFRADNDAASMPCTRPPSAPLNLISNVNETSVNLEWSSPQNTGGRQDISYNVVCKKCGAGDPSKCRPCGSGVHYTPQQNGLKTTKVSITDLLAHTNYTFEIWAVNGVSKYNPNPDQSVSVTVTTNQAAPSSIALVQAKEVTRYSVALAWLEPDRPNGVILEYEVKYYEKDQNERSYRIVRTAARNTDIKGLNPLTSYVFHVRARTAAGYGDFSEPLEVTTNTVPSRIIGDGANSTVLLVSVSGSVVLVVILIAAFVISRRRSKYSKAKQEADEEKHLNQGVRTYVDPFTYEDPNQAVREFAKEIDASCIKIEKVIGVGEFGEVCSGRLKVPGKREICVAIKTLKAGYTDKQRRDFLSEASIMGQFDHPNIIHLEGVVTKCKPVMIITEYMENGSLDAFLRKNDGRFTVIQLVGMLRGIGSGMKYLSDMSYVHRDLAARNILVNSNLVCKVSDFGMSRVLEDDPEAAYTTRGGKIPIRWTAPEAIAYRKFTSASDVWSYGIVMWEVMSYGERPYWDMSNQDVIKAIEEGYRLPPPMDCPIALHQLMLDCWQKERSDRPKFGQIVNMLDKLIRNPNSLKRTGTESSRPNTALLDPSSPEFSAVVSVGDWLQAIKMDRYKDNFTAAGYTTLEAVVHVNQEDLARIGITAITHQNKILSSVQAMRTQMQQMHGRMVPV
The target of test [2] is Ephrin type-A receptor 7 (Homo sapiens) (UniProt Q15375). The test can be described thus: Induction of stabilization of recombinant EPHA7 (unknown origin) assessed as change in melting temperature by differential scanning fluorimetry assay.
For test [3], the target named is T1, Ephrin type-B receptor 1 (Homo sapiens) (UniProt P54762).
T1 sequence (whole entry): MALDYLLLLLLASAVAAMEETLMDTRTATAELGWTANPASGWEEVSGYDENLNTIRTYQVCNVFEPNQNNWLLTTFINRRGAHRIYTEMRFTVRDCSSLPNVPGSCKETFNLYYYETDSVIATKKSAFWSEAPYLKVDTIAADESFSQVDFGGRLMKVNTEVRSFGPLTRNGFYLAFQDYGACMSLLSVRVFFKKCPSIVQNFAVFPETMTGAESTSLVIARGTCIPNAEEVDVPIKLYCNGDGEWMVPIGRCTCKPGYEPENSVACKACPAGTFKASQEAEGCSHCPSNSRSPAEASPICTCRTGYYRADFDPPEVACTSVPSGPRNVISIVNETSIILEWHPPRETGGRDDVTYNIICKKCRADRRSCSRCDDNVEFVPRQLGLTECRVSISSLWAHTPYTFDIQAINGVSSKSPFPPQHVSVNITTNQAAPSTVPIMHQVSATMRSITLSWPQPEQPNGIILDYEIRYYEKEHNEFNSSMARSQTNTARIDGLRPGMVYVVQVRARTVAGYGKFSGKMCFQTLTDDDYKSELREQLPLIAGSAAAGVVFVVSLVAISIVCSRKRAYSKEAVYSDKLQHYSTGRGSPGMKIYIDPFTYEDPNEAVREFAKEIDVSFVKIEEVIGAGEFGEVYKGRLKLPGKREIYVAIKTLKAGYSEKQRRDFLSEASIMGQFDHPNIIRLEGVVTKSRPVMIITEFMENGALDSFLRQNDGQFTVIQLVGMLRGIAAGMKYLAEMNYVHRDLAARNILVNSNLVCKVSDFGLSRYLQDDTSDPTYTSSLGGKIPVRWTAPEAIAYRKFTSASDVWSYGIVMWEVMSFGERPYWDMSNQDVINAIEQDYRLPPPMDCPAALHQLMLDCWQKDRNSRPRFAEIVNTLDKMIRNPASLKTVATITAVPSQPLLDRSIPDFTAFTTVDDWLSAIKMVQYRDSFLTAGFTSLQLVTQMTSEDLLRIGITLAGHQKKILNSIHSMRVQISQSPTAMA
The test can be described thus: Induction of stabilization of recombinant EPHB1 (unknown origin) assessed as change in melting temperature by differential scanning fluorimetry assay.

Test [4] concerns the target T2, Ephrin type-B receptor 3 (Homo sapiens) (UniProt P54753).
T2 sequence (whole entry): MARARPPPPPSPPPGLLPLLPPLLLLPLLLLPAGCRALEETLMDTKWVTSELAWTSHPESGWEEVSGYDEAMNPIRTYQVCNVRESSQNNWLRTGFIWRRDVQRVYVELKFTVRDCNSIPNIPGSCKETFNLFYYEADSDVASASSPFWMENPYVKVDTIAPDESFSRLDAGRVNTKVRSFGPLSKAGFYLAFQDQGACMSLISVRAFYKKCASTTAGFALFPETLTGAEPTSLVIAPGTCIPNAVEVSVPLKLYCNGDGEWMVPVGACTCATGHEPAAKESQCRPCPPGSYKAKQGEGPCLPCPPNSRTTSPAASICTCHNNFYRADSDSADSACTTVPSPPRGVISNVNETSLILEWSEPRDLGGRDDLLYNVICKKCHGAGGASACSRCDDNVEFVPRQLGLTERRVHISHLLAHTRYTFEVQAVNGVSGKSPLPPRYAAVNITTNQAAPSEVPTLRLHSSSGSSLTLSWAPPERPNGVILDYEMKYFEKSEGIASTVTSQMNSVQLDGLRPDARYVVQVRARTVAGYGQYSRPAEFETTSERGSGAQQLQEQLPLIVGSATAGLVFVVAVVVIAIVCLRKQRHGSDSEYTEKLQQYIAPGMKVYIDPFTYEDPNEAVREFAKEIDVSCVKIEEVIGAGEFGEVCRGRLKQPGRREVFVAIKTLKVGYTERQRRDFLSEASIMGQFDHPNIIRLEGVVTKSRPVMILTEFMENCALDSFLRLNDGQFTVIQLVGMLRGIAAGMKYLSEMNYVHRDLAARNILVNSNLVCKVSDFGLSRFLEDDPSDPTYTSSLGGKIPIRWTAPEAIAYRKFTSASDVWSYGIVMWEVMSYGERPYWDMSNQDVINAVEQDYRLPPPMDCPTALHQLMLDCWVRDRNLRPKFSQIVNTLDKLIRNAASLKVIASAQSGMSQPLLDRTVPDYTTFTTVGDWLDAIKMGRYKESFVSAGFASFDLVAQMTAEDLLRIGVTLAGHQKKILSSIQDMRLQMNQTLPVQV
The test can be described thus: Induction of stabilization of recombinant EPHB3 (unknown origin) assessed as change in melting temperature by differential scanning fluorimetry assay.

Test [5] concerns the target Vascular endothelial growth factor receptor 1 (Homo sapiens, UniProt P17948). The test is described as follows: Induction of stabilization of recombinant FLT1 (unknown origin) assessed as change in melting temperature by differential scanning fluorimetry assay.
Test [6] addresses Ephrin type-A receptor 2 (Homo sapiens, UniProt P29317).
Description: Induction of stabilization of recombinant EPHA2 (D596 to G900 residues) (unknown origin) expressed in Escherichia coli rosetta BL21(D3)-R3-pRARE2 competent cells assessed as change in melting temperature by differential scanning fluorimetry assay
Test [7] addresses Ephrin type-A receptor 5 (Homo sapiens) (UniProt P54756).
Description: Induction of stabilization of recombinant EPHA5 (unknown origin) assessed as change in melting temperature by differential scanning fluorimetry assay
The target of test [8] is Fibroblast growth factor receptor 1 (Homo sapiens, UniProt P11362).
Description: Induction of stabilization of recombinant FGFR1 (unknown origin) assessed as change in melting temperature by differential scanning fluorimetry assay
The target of test [9] is Fibroblast growth factor receptor 2 (Homo sapiens) (UniProt P21802).
Description: Induction of stabilization of recombinant FGFR2 (unknown origin) assessed as change in melting temperature by differential scanning fluorimetry assay
Test [10] concerns the target T3, Cyclin-G-associated kinase (Homo sapiens) (UniProt O14976).
T3 sequence (whole entry): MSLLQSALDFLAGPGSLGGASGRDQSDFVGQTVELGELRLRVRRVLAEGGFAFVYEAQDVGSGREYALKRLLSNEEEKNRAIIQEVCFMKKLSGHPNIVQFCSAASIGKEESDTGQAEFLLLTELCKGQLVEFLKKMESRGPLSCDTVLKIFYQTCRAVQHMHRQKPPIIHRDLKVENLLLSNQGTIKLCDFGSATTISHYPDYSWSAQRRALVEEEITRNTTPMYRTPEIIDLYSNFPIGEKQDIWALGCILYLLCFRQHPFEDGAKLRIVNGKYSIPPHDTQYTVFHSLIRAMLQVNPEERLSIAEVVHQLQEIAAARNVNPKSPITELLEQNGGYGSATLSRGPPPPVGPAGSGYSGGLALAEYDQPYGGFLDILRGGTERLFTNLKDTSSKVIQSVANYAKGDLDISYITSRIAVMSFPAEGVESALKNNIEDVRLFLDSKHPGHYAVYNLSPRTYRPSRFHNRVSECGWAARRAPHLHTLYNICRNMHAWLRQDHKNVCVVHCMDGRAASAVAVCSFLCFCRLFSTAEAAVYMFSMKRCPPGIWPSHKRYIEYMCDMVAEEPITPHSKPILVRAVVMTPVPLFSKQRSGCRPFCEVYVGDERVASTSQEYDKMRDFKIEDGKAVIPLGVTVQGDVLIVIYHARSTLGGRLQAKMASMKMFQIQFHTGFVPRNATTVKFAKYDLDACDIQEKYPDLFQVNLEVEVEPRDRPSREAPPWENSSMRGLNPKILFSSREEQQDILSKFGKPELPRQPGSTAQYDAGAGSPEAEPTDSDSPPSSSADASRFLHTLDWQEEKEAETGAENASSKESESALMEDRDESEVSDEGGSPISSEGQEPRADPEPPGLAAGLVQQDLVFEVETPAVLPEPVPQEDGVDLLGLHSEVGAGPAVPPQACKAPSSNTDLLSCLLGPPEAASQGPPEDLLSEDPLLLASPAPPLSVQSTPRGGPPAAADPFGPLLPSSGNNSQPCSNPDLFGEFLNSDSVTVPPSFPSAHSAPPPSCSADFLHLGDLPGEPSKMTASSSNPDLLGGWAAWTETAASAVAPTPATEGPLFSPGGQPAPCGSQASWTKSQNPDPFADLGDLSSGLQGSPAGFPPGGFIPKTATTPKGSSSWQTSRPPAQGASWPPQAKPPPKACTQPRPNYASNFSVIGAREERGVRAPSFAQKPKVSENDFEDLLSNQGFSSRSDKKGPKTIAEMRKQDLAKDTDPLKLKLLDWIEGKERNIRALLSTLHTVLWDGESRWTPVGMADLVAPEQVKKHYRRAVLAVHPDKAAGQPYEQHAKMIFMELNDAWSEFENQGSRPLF
Description: Induction of stabilization of recombinant GAK (unknown origin) assessed as change in melting temperature by differential scanning fluorimetry assay

Each structure is given as a SMILES string.

Vascular endothelial growth factor receptor 1, sequence (P17948 whole entry): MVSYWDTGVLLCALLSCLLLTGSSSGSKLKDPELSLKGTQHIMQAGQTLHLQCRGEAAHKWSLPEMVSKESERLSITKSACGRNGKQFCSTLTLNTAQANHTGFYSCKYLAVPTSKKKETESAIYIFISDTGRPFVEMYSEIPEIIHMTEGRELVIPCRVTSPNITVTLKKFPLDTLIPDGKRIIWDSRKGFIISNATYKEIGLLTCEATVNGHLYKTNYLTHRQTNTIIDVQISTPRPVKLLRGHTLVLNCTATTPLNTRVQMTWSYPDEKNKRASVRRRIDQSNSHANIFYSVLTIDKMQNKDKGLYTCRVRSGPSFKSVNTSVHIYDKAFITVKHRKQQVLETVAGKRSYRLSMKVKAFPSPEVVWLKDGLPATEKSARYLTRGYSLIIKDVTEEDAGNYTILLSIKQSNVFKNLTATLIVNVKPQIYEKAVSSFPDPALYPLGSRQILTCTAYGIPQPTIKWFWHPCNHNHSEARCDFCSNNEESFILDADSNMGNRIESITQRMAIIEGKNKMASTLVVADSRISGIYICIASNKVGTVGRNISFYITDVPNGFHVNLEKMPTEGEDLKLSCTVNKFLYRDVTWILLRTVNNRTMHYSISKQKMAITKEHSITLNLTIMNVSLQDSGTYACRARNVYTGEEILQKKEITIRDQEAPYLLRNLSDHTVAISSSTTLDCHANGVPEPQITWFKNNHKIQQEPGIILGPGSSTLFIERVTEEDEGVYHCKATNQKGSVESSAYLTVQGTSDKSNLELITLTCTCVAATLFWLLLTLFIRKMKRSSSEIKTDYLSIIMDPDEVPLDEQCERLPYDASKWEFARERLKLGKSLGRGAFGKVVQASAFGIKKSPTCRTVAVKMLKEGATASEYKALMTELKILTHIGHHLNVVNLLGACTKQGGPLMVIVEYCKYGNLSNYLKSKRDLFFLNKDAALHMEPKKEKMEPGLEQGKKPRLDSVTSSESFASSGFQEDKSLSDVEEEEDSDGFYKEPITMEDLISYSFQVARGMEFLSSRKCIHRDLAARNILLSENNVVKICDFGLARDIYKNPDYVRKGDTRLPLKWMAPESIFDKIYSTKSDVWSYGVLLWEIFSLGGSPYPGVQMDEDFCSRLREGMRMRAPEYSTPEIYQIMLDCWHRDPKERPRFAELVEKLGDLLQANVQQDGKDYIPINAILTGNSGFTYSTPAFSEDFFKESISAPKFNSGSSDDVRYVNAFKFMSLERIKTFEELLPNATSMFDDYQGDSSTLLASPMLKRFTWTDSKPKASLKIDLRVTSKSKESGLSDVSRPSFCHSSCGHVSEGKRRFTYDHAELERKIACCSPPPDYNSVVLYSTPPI
Ephrin type-A receptor 2, sequence (P29317 whole entry): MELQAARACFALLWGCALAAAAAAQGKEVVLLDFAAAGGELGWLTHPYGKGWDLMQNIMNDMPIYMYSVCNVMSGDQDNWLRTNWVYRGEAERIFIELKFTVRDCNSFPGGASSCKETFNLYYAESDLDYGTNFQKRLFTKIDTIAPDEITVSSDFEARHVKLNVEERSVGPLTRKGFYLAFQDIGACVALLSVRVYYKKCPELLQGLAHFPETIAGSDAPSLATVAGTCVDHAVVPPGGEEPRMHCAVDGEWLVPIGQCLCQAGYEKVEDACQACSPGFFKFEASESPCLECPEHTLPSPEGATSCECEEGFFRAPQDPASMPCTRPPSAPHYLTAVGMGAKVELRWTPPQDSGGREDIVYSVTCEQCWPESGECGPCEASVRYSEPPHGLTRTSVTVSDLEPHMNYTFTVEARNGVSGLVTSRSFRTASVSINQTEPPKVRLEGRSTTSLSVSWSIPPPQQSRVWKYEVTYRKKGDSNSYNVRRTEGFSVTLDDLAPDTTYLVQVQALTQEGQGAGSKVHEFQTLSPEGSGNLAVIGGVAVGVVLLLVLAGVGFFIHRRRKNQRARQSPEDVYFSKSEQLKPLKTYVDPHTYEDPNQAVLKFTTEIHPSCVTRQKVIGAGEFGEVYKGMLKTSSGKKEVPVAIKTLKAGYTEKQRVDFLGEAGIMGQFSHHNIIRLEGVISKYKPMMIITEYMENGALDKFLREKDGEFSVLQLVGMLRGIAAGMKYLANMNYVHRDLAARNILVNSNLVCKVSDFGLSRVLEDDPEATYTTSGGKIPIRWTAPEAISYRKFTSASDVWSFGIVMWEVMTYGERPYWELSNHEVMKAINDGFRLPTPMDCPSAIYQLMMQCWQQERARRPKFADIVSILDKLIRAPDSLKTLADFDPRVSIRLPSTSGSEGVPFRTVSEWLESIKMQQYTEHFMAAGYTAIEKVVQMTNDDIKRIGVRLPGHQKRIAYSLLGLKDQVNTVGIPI
Ephrin type-A receptor 5 (Homo sapiens), sequence (P54756 whole entry): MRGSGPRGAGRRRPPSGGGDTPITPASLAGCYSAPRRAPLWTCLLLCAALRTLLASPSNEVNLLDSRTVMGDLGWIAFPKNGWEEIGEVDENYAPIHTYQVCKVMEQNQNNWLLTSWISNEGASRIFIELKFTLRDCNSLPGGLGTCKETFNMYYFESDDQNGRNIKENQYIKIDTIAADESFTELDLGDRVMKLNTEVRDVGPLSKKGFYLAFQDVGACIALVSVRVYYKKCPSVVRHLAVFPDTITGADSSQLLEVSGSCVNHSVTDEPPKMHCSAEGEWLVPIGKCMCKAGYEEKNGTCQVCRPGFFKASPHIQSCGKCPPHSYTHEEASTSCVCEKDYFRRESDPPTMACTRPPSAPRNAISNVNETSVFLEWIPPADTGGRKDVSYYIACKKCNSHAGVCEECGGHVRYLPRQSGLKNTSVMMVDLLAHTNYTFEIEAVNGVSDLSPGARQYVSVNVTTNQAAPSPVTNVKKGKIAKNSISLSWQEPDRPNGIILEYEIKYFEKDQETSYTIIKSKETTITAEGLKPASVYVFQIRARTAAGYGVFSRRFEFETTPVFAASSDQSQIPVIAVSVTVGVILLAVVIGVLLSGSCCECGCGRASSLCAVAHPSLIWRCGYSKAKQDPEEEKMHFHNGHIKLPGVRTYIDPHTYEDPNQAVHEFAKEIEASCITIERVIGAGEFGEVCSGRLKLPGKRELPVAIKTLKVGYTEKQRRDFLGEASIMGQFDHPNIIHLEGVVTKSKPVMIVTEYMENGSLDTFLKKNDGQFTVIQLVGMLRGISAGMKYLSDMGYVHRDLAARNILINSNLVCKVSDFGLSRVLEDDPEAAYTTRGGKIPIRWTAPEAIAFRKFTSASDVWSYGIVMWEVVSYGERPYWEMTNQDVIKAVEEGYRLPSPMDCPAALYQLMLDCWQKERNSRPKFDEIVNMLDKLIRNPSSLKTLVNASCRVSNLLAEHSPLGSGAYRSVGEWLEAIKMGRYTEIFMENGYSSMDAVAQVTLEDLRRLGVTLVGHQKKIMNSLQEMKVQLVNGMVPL

On to `COc1cc(-c2cnc3nc2NCCCNS(=O)(=O)c2cc(ccc2C)N3)ccc1F`, for which the deltaTm in [1] is 3.6 K; in test [2], 2 K; in [3], 4.2 K; in test [4], 6.1 K; in [5] it was -1.3 K; in test [6], 7.6 K. The deltaTm in test [7] was 5.5 K; in test [8] it was 2.7 K; in test [9] it was 3 K; in test [10], 6.4 K.
On to `COc1cc(-c2cnc3nc2NCCCNS(=O)(=O)c2cccc(c2)N3)cc(F)c1F`, for which the deltaTm in [1] was 1.2 K; in test [2], -3.3 K; in test [3], 2.7 K; in [4] it was 2.3 K; in test [5] it was 3 K; in [6], 5 K. In addition, the deltaTm worked out at 1.9 K in test [7], 2.2 K in [8], 2.9 K in test [9] and 4.1 K in [10].
Turning to `CSc1cc(-c2cnc3nc2NCCCNS(=O)(=O)c2cccc(c2)N3)ccc1F`, the deltaTm worked out at 3.4 K in test [1]; 2 K in test [2]; 3 K in test [3]; 4.3 K in test [4]; 4.7 K in [5]; 6.9 K in [6]. Besides, the deltaTm in test [7] is 4.3 K; in test [8], 3.3 K; in test [9], 4.1 K; in test [10], 7.8 K.
`COc1cc(-c2cnc3nc2NCCCNS(=O)(=O)c2cc(ccc2-c2ccc(O)cc2)N3)ccc1F`: the deltaTm in [1] came to 5.3 K; in [2] it was 2.9 K; in test [3], 4.3 K; in test [4] it was 6 K; in [5] it was 3.6 K; in test [6] it was 9.8 K. Also, the deltaTm in test [7] was determined as 6.7 K; in test [8] it was 3.1 K; in [9] it was 4 K; in [10], 3.6 K.
For `COC(=O)c1cc(-c2cnc3nc2NCCCNS(=O)(=O)c2cccc(c2)N3)ccc1F`, the deltaTm was -0.6 K in test [1]; -2.8 K in [2]; 1.3 K in test [3]; 1.5 K in test [4]; 6.4 K in [5]; 2.1 K in [6]. The deltaTm in test [7] was -0.7 K; in test [8], 3.5 K; in test [9] it was 3.1 K; in test [10], -1.3 K.
`COc1cc(-c2cnc3nc2NCCCNS(=O)(=O)c2cccc(c2)N3)cc(C(F)(F)F)c1`: the deltaTm in [1] came to 0.8 K; in [2] it was 1.4 K; in test [3], 0.9 K; in [4], 1.1 K; in test [5], 5.3 K; in test [6] it was 1.8 K. Besides, the deltaTm in test [7] worked out at 1.3 K; in test [8], 4.9 K; in [9], 5.8 K; in test [10], 3.3 K.
For the compound `O=S1(=O)NCCCNc2nc(ncc2-c2cc(Cl)c(Cl)cc2F)Nc2cccc1c2`, the deltaTm was 3.8 K in test [1]; 0.4 K in test [2]; 3.5 K in [3]; 5.4 K in test [4]; 5.4 K in test [5]; 9.5 K in test [6]. Further, the deltaTm in test [7] was found to be 5.6 K; in [8], 4.5 K; in test [9], 5.7 K; in [10], 6.5 K.
With `COc1cc(-c2cnc3nc2NCCCNS(=O)(=O)c2cccc(c2)N3)ccc1C#N`, the deltaTm was found to be 5.2 K in test [1]; 0 K in [2]; 5.2 K in [3]; 3.1 K in test [4]; 1.1 K in [5]; 8.6 K in test [6]. The deltaTm in [7] was found to be 6.2 K; in test [8], 0 K; in test [9], 1.7 K; in [10] it was 8.9 K.
For the compound `COc1cc(-c2cnc3nc2NCCCNS(=O)(=O)c2cccc(c2)N3)c(F)cc1Cl`, the deltaTm in [1] is 4.7 K; in test [2], 0.4 K; in test [3] it was 4.9 K; in test [4] it was 5.8 K; in [5], 3 K; in [6] it was 9.8 K. The deltaTm worked out at 6 K in [7], 2.7 K in [8], 3.4 K in test [9] and 9.3 K in test [10].
